One compound from ChEMBL document CHEMBL3751785, “Development and structural analysis of adenosine site binding tankyrase inhibitors” (Bioorg Med Chem Lett, 2016) can be followed below.

Test [1] has as its target T1, Poly [ADP-ribose] polymerase tankyrase-2 (Homo sapiens, UniProt Q9H2K2).
T1 sequence (Q9H2K2 whole entry): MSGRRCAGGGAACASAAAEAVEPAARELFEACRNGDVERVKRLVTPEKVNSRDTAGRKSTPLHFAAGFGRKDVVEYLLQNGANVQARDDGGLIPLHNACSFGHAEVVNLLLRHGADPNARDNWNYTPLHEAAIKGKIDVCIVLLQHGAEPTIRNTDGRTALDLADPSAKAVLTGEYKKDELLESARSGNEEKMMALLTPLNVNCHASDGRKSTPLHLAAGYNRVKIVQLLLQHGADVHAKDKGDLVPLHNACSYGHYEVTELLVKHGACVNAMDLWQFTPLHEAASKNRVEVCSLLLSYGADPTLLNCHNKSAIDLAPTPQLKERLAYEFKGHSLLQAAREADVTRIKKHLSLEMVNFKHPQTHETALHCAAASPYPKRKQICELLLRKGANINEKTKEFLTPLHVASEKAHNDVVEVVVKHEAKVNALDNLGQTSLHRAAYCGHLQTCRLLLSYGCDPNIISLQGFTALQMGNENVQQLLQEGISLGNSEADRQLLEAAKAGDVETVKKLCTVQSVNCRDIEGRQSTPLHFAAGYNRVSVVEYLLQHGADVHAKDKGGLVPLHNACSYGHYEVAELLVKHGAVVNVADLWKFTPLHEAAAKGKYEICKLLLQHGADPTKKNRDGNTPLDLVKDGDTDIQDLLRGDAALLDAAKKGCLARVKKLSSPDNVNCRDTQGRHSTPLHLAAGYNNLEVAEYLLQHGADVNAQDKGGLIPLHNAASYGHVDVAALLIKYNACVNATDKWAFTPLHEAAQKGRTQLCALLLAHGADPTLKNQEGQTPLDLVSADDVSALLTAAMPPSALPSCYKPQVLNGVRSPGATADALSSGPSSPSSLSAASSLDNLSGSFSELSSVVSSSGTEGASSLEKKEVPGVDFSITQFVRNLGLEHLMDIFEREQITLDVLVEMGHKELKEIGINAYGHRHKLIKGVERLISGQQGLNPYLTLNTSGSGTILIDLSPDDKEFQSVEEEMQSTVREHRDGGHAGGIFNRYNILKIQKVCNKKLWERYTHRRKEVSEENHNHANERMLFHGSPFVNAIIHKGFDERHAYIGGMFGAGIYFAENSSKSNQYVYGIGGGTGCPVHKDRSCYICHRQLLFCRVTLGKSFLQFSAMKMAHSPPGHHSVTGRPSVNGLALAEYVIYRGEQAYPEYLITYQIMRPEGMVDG
The test can be described thus: Inhibition of human TNKS2 by fluorescence analysis.

For test [2], the target named is Poly [ADP-ribose] polymerase 2 (Homo sapiens, UniProt Q9UGN5). Nature of the test: Inhibition of human ARTD2 by fluorescence analysis.
Chain of Poly [ADP-ribose] polymerase 2 (Q9UGN5 whole entry): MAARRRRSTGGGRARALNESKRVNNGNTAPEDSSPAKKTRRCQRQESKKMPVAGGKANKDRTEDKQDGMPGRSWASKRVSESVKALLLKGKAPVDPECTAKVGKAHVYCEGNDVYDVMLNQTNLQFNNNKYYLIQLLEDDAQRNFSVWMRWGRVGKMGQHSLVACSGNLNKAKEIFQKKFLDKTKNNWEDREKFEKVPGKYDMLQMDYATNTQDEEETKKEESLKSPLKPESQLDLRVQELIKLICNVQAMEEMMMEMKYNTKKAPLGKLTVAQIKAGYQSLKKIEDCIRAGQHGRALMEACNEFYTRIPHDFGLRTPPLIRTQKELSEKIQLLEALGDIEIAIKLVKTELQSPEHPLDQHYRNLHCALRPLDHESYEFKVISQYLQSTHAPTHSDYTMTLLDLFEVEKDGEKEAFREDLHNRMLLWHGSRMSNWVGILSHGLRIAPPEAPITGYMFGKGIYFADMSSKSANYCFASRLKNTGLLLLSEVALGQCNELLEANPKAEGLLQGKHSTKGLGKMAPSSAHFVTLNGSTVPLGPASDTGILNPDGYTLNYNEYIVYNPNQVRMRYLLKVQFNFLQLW
Test [3] deals with T2, Protein mono-ADP-ribosyltransferase PARP3 (Homo sapiens, UniProt Q9Y6F1).
T2 sequence (Q9Y6F1 whole entry): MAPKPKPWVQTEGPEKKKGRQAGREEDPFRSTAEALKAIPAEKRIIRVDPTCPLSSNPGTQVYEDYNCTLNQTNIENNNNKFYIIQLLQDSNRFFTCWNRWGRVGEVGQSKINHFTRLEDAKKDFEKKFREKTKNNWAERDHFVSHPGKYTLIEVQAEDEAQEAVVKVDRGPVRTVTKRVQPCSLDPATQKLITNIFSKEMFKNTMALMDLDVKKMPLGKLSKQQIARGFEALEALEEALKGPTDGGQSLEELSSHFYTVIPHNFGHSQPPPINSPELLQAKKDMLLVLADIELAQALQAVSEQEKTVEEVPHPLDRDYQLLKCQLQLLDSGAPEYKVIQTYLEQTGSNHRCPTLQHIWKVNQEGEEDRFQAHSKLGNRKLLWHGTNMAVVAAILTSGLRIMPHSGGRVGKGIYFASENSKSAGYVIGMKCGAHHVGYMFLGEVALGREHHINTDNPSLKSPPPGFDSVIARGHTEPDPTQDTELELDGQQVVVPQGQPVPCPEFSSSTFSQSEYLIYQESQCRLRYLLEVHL
Nature of the test: Inhibition of human ARTD3 by fluorescence analysis.

Test [4] addresses Protein mono-ADP-ribosyltransferase PARP4 (Homo sapiens, UniProt Q9UKK3). Nature of the test: Inhibition of human ARTD4 by fluorescence analysis.
Test [5] concerns the target T3, Protein mono-ADP-ribosyltransferase PARP15 (Homo sapiens, UniProt Q460N3).
T3 sequence (Q460N3 whole entry): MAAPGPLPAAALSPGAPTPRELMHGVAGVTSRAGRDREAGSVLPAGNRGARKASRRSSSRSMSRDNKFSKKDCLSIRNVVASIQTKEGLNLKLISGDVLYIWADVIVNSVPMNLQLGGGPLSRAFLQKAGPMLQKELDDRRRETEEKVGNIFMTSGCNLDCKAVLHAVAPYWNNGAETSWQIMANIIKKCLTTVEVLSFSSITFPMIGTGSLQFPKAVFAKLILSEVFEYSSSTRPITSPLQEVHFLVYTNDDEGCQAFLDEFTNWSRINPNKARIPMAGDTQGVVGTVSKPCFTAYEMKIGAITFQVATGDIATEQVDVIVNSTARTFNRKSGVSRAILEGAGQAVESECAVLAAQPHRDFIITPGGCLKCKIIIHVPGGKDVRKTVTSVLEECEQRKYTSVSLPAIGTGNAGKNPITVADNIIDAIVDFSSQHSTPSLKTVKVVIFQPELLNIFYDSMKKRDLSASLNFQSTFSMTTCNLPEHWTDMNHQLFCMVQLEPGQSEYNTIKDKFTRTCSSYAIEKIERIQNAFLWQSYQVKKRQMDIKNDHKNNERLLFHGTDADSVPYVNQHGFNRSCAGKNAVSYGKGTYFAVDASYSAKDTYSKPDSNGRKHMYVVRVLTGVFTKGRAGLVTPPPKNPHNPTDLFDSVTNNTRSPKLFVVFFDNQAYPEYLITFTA
Nature of the test: Inhibition of human ARTD7 by fluorescence analysis.

The target of test [6] is Protein mono-ADP-ribosyltransferase PARP14 (Homo sapiens, UniProt Q460N5). Nature of the test: Inhibition of human ARTD8 by fluorescence analysis.
Chain of Protein mono-ADP-ribosyltransferase PARP14 (Q460N5 whole entry): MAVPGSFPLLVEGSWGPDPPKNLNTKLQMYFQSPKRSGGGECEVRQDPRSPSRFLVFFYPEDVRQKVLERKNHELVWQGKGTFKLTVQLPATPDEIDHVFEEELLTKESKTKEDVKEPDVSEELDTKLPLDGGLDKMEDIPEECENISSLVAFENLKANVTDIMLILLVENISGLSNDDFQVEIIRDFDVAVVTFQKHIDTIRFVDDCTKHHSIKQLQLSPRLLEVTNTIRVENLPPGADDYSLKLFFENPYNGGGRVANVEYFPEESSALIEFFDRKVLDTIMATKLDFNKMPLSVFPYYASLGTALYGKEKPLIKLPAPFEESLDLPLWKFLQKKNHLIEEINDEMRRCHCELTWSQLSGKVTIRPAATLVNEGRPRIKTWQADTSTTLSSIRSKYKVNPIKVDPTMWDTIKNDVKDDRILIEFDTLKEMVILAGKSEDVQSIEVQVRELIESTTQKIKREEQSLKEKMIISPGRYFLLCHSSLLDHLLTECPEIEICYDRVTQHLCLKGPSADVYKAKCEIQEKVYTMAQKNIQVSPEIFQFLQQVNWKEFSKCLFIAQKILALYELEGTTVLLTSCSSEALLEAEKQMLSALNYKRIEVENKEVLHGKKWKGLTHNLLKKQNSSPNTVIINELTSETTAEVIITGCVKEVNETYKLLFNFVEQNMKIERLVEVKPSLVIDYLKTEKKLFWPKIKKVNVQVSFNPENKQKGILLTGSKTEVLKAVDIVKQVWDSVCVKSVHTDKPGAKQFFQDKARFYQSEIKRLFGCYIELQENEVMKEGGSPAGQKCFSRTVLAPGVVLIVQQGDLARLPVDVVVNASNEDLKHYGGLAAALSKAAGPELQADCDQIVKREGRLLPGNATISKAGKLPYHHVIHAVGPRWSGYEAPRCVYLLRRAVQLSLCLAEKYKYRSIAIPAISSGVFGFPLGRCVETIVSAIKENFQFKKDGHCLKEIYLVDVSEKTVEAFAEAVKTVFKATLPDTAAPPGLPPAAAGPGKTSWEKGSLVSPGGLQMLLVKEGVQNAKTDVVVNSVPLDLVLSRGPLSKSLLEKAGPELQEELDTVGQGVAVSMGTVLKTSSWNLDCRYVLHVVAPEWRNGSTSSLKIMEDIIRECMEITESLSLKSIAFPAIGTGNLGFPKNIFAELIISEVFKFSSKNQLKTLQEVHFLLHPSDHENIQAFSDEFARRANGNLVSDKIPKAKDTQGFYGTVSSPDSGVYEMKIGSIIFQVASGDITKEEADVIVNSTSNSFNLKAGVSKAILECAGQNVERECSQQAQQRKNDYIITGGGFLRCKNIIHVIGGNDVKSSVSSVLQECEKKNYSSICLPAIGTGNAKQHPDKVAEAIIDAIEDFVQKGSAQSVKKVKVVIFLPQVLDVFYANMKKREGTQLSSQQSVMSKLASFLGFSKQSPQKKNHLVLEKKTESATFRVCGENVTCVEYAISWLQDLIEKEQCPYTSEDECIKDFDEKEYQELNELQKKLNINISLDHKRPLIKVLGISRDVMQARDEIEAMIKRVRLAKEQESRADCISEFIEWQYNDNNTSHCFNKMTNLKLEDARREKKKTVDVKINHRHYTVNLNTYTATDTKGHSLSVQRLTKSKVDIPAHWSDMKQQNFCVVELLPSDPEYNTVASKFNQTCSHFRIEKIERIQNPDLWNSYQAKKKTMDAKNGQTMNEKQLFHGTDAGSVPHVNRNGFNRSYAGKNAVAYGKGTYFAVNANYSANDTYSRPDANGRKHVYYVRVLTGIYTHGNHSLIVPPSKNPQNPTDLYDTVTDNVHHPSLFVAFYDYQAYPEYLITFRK

SMILES strings stand for the structures.

Chain of Protein mono-ADP-ribosyltransferase PARP4 (Q9UKK3 whole entry): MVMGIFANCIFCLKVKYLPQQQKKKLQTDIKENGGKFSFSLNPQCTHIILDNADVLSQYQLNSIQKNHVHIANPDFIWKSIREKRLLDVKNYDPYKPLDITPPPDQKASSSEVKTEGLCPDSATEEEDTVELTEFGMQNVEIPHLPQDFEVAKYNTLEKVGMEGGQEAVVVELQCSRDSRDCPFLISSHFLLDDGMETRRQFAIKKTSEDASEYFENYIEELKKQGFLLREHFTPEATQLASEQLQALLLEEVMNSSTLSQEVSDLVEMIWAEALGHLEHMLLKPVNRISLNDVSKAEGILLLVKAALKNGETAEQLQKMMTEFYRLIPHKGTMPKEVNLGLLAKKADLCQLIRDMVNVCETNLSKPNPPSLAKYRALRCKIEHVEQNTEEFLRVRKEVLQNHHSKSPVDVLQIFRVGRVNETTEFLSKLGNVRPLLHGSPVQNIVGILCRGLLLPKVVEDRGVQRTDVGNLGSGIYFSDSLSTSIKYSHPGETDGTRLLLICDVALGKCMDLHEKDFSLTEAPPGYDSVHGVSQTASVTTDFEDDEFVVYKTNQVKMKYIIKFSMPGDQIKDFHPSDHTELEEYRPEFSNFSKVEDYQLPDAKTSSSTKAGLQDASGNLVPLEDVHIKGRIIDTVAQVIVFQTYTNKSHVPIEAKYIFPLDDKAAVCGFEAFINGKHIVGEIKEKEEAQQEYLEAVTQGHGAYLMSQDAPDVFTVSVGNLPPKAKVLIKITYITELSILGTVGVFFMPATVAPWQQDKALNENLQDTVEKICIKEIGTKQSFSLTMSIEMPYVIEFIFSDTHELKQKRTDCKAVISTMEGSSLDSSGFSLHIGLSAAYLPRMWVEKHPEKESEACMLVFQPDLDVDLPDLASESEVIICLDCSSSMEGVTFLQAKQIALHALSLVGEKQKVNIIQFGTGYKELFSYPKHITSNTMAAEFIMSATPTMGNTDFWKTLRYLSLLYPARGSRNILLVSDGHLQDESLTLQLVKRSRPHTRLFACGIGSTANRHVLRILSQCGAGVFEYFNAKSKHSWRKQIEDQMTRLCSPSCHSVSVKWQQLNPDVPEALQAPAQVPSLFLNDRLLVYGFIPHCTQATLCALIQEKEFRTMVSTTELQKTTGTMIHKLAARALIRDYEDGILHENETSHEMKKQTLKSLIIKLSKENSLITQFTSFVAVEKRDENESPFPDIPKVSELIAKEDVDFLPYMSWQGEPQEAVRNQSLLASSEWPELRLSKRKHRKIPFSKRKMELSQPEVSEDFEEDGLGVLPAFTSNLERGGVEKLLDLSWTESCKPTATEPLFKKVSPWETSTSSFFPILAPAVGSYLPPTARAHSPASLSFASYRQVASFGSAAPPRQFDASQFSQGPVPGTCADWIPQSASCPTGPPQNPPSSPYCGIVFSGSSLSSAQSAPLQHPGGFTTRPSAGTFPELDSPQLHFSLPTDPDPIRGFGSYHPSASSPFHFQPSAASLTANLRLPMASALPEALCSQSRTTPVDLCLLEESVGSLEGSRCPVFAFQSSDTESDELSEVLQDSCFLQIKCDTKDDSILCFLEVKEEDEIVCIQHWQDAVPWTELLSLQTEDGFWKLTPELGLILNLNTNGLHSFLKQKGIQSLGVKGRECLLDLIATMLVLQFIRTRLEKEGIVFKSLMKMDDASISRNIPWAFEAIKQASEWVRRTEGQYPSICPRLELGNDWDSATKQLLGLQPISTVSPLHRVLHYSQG

For the compound `COc1ccc(C2(CNC(=O)c3ccc(NC(=O)c4ccco4)cc3Cl)CCOCC2)cc1`, the IC50 is 2.15 µM in test [1] (read-out: IC50); 2.14 µM in test [1] (read-out: pIC50 (converted)); more than 100 µM in test [2]; more than 100 µM in test [3]; more than 100 µM in test [4]; more than 10 µM in test [5]. The IC50 in test [6] is more than 10 µM.
